Measured values as given in patent US11339419B2, “Scavenger protein(s) for improved preservation of analyte detection sensor(s) and method(s) of use thereof” (Siemens Healthcare Diagnostics Inc., priority 2017, dated 2022).
Several values for one entry are separate records, joined by “and”; a condition that tells them apart may be missing. Equal entries are not always repeated.

What was measured:
Type in all cases: biochemical
[1] = system: creatininase (Toyobo); assay: Toyobo Creatininase Enzyme Absorbance with BSA and MIT; conditions: 0 mg/mL BSA
From the text: Absorbance measurements of the creatininase enzyme(s) were taken via spectrophotometer for each aqueous solution (represented as columns 1-5 in Tables 5-8—column 6 is a blank), the absorbance being directly proportional to the enzyme activity being measured-which for Tables 5-8 is creatininase enzyme activity. Accordingly, the higher the absorbance measurement, the higher the enzyme activity of creatininase. Columns 7-11 represent five replicate readings in which the solution only contains BSA (i.e., there is no biocide(s) present in the solution). In addition, the mean values, standard deviations, and coefficients of variation are all presented for the enzyme activity/absorbance of each aqueous solution. All measurements were taken at 37° C.
As depicted in Table 6, creatininase (commercially offered for sale by Toyobo) enzyme activity is measured against various concentrations of MIT (biocide) and BSA (scavenger protein) over a period of 14 days (with absorbance measurement taken at 0, 4, and 14 days) for five different aqueous solutions (represented as columns 1-5—column 6 is a blank).

[2] = system: sarcosine oxidase (BBI Solutions); assay: BBI Solutions Sarcosine Oxidase Enzyme Absorbance with BSA and MIT; conditions: 0 mg/mL BSA; for Sarcosine Oxidase Enzyme Absorbance, MEAN of 1-5 / Sarcosine Oxidase Enzyme Absorbance, solutions 1-5: 37° C.
Method: (§1) Tables 1-4 depict aqueous solutions comprising varying concentrations of BSA (at concentrations of 0 mg/mL, 5 mg/mL, 25 mg/mL, and 50 mg/mL), varying concentrations of MIT (at concentrations of 50 parts per million and 100 parts per million) or Proclin™ 300 (at concentrations of 0.7% and 1.4%) biocides over a particular time period (measurements were taken at days 0, 4, and 14 after exposure of the enzyme(s) to the aqueous solutions) and the associated enzyme absorbance measurements for sarcosine oxidase (commercially offered for sale by BBI Solutions and Toyobo). Absorbance measurements of the sarcosine oxidase enzyme(s) were taken via spectrophotometer for each aqueous solution (represented as columns 1-5 in Tables 1-4—column 6 is a blank), the absorbance being directly proportional to the enzyme activity being measured-which for Tables 1-4 is sarcosine oxidase enzyme activity. Accordingly, the higher the absorbance measurement, the higher the enzyme activity of sarcosine oxidase. Columns 7-11 represent five replicate readings in which the aqueous solution only contains BSA (i.e., there is no biocide(s) present in the aqueous solution). In addition, the mean values, standard deviations, and coefficients of variation are also presented for the enzyme activity/absorbance of each aqueous solution. All measurements were taken at 37° C.
As depicted below in Table 1, sarcosine oxidase (commercially offered for sale by BBI Solutions) enzyme activity is measured against various concentrations of MIT (biocide) and BSA (scavenger protein) over a period of 14 days (with absorbance measurements taken at 0, 4, and 14 days) for five different aqueous solutions (represented as columns 1-5—column 6 is a blank).

[3] = system: creatininase (BBI Solutions); assay: BBI Solutions Creatininase Enzyme Absorbance with BSA and MIT; conditions: 0 mg/mL BSA
Method: Table 5-8 depict aqueous solutions comprising varying concentrations of BSA (at concentrations of 0 mg/mL, 5 mg/mL, 25 mg/mL, and 50 mg/mL), varying concentrations of MIT (at concentrations of 50 parts per million and 100 parts per million) or Proclin™ 300 (at concentrations of 0.7% and 1.4%) biocide over a particular time period (measurements were taken at days 0, 4, and 14 after exposure of the enzyme(s) to the particular aqueous solutions) and the associated enzyme absorbance measurements for creatininase (commercially offered for sale by BBI Solutions and Toyobo). Absorbance measurements of the creatininase enzyme(s) were taken via spectrophotometer for each aqueous solution (represented as columns 1-5 in Tables 5-8—column 6 is a blank), the absorbance being directly proportional to the enzyme activity being measured-which for Tables 5-8 is creatininase enzyme activity. Accordingly, the higher the absorbance measurement, the higher the enzyme activity of creatininase. Columns 7-11 represent five replicate readings in which the solution only contains BSA (i.e., there is no biocide(s) present in the solution). In addition, the mean values, standard deviations, and coefficients of variation are all presented for the enzyme activity/absorbance of each aqueous solution. All measurements were taken at 37° C.
As depicted in Table 5, creatininase (commercially offered for sale by BBI Solutions) enzyme activity is measured against various concentrations of MIT (biocide) and BSA (scavenger protein) over a period of 14 days (with absorbance measurement taken at 0, 4, and 14 days) for five different aqueous solutions (represented as columns 1-5—column 6 is a blank).

[4] = system: sarcosine oxidase (Toyobo); assay: Toyobo Sarcosine Oxidase Enzyme Absorbance with BSA and MIT; conditions: 0 mg/mL BSA; for Sarcosine Oxidase Enzyme Absorbance, MEAN of 1-5 / Sarcosine Oxidase Enzyme Absorbance, solutions 1-5: 37° C.
Method: as §1
As depicted below in Table 2, sarcosine oxidase (commercially offered for sale by Toyobo) enzyme activity is measured against various concentrations of MIT (biocide) and BSA (scavenger protein) over a period of 14 days (with absorbance measurements taken at 0, 4, and 14 days) for five different aqueous solutions (represented as columns 1-5-column 6 is a blank).

Cn1sccc1=O [MIT, methylisothiazolinone, reference compound]
% Bias ([1]; Day 0, 50 ppm MIT vs no MIT): 10.4% | Creatininase Enzyme Absorbance ([1]; Day 0, 50 ppm MIT): 0.846 and 0.775 and 0.735 and 0.721 and 0.713 | MEAN ([1]; Day 0, 50 ppm MIT): 0.56 | % Bias ([1]; Day 0, 100 ppm MIT vs no MIT): 3.8% | Creatininase Enzyme Absorbance ([1]; Day 0, 100 ppm MIT): 0.937 and 0.871 and 0.866 and 0.827 and 0.836 | MEAN ([1]; Day 0, 100 ppm MIT): 0.67 | % Bias ([1]; Day 4, 50 ppm MIT vs no MIT): 12.2% | Creatininase Enzyme Absorbance ([1]; Day 4, 50 ppm MIT): 0.777 and 0.754 and 0.767 and 0.743 and 0.77 | MEAN ([1]; Day 4, 50 ppm MIT): 0.55 | % Bias ([1]; Day 4, 100 ppm MIT vs no MIT): 9.8% | Creatininase Enzyme Absorbance ([1]; Day 4, 100 ppm MIT): 0.745 and 0.768 and 0.763 and 0.748 and 0.792 | MEAN ([1]; Day 4, 100 ppm MIT): 0.55 | % Bias ([1]; Day 14, 50 ppm MIT vs no MIT): 9.3% | Creatininase Enzyme Absorbance ([1]; Day 14, 50 ppm MIT): 0.828 and 0.801 and 0.702 and 0.794 and 0.79 | MEAN ([1]; Day 14, 50 ppm MIT): 0.55 | % Bias ([1]; Day 14, 100 ppm MIT vs no MIT): 5.1% | Creatininase Enzyme Absorbance ([1]; Day 14, 100 ppm MIT): 0.794 and 0.774 and 0.784 and 0.73 and 0.78 | MEAN ([1]; Day 14, 100 ppm MIT): 0.54 | % Bias ([2]; Day 0, 50 ppm MIT vs no MIT): 3.8% | Sarcosine Oxidase Enzyme Absorbance, MEAN of 1-5 ([2]; Day 0, 50 ppm MIT): 1.43 | Sarcosine Oxidase Enzyme Absorbance, solutions 1-5 ([2]; Day 0, 50 ppm MIT): 1.463 and 1.459 and 1.507 and 1.474 and 1.477 | % Bias ([2]; Day 0, 100 ppm MIT vs no MIT): 1.3% | Sarcosine Oxidase Enzyme Absorbance, MEAN of 1-5 ([2]; Day 0, 100 ppm MIT): 1.39 | Sarcosine Oxidase Enzyme Absorbance, solutions 1-5 ([2]; Day 0, 100 ppm MIT): 1.446 and 1.428 and 1.422 and 1.427 and 1.423 | % Bias ([2]; Day 4, 50 ppm MIT vs no MIT): 1.5% | Sarcosine Oxidase Enzyme Absorbance, MEAN of 1-5 ([2]; Day 4, 50 ppm MIT): 1.35 | Sarcosine Oxidase Enzyme Absorbance, solutions 1-5 ([2]; Day 4, 50 ppm MIT): 1.388 and 1.397 and 1.401 and 1.346 and 1.368 | % Bias ([2]; Day 4, 100 ppm MIT vs no MIT): 2.0% | Sarcosine Oxidase Enzyme Absorbance, MEAN of 1-5 ([2]; Day 4, 100 ppm MIT): 1.35 | Sarcosine Oxidase Enzyme Absorbance, solutions 1-5 ([2]; Day 4, 100 ppm MIT): 1.38 and 1.379 and 1.384 and 1.353 | % Bias ([2]; Day 14, 50 ppm MIT vs no MIT): −8.8% | Sarcosine Oxidase Enzyme Absorbance, MEAN of 1-5 ([2]; Day 14, 50 ppm MIT): 0.24 | Sarcosine Oxidase Enzyme Absorbance, solutions 1-5 ([2]; Day 14, 50 ppm MIT): 0.272 and 0.267 and 0.265 and 0.283 and 0.286 | % Bias ([2]; Day 14, 100 ppm MIT vs no MIT): −34.1% | Sarcosine Oxidase Enzyme Absorbance, MEAN of 1-5 ([2]; Day 14, 100 ppm MIT): 0.18 | Sarcosine Oxidase Enzyme Absorbance, solutions 1-5 ([2]; Day 14, 100 ppm MIT): 0.218 and 0.215 and 0.21 and 0.214 and 0.219 | % Bias ([3]; Day 0, 50 ppm MIT vs no MIT): 4.1% | Creatininase Enzyme Absorbance ([3]; Day 0, 50 ppm MIT): 0.663 and 0.662 and 0.668 and 0.62 and 0.649 | MEAN ([3]; Day 0, 50 ppm MIT): 0.45 | % Bias ([3]; Day 0, 100 ppm MIT vs no MIT): 0.7% | Creatininase Enzyme Absorbance ([3]; Day 0, 100 ppm MIT): 0.765 and 0.721 and 0.731 and 0.712 and 0.723 | MEAN ([3]; Day 0, 100 ppm MIT): 0.53 | % Bias ([3]; Day 4, 50 ppm MIT vs no MIT): 3.3% | Creatininase Enzyme Absorbance ([3]; Day 4, 50 ppm MIT): 0.654 and 0.633 and 0.52 and 0.638 | MEAN ([3]; Day 4, 50 ppm MIT): 0.41 | % Bias ([3]; Day 4, 100 ppm MIT vs no MIT): −2.3% | Creatininase Enzyme Absorbance ([3]; Day 4, 100 ppm MIT): 0.616 and 0.604 and 0.597 and 0.523 | MEAN ([3]; Day 4, 100 ppm MIT): 0.38 | % Bias ([3]; Day 14, 50 ppm MIT vs no MIT): −6.5% | Creatininase Enzyme Absorbance ([3]; Day 14, 50 ppm MIT): 0.732 and 0.689 and 0.701 and 0.686 and 0.725 | MEAN ([3]; Day 14, 50 ppm MIT): 0.44 | % Bias ([3]; Day 14, 100 ppm MIT vs no MIT): 7.0% | Creatininase Enzyme Absorbance ([3]; Day 14, 100 ppm MIT): 0.755 and 0.699 and 0.714 and 0.707 and 0.716 | MEAN ([3]; Day 14, 100 ppm MIT): 0.45 | % Bias ([4]; Day 0, 50 ppm MIT vs no MIT): 0.8% | Sarcosine Oxidase Enzyme Absorbance, MEAN of 1-5 ([4]; Day 0, 50 ppm MIT): 1.42 | Sarcosine Oxidase Enzyme Absorbance, solutions 1-5 ([4]; Day 0, 50 ppm MIT): 1.463 and 1.462 and 1.447 and 1.446 | % Bias ([4]; Day 0, 100 ppm MIT vs no MIT): 2.6% | Sarcosine Oxidase Enzyme Absorbance, MEAN of 1-5 ([4]; Day 0, 100 ppm MIT): 1.44 | Sarcosine Oxidase Enzyme Absorbance, solutions 1-5 ([4]; Day 0, 100 ppm MIT): 1.491 and 1.45 and 1.5 and 1.478 and 1.464 | % Bias ([4]; Day 4, 50 ppm MIT vs no MIT): 101.5% | Sarcosine Oxidase Enzyme Absorbance, MEAN of 1-5 ([4]; Day 4, 50 ppm MIT): 0.25 | Sarcosine Oxidase Enzyme Absorbance, solutions 1-5 ([4]; Day 4, 50 ppm MIT): 0.277 and 0.275 and 0.272 and 0.283 and 0.282 | % Bias ([4]; Day 4, 100 ppm MIT vs no MIT): 115.9% | Sarcosine Oxidase Enzyme Absorbance, MEAN of 1-5 ([4]; Day 4, 100 ppm MIT): 0.27 | Sarcosine Oxidase Enzyme Absorbance, solutions 1-5 ([4]; Day 4, 100 ppm MIT): 0.302 and 0.304 and 0.298 and 0.317 | % Bias ([4]; Day 14, 50 ppm MIT vs no MIT): 7.4% | Sarcosine Oxidase Enzyme Absorbance, MEAN of 1-5 ([4]; Day 14, 50 ppm MIT): 0.11 | Sarcosine Oxidase Enzyme Absorbance, solutions 1-5 ([4]; Day 14, 50 ppm MIT): 0.154 and 0.153 and 0.151 and 0.159 and 0.16 | % Bias ([4]; Day 14, 100 ppm MIT vs no MIT): 8.8% | Sarcosine Oxidase Enzyme Absorbance, MEAN of 1-5 ([4]; Day 14, 100 ppm MIT): 0.13 | Sarcosine Oxidase Enzyme Absorbance, solutions 1-5 ([4]; Day 14, 100 ppm MIT): 0.163 and 0.176 and 0.168 and 0.172
